For 34 compounds, melting point results are on record in patent US8293768B2, “Organic compounds” (Novartis AG, priority 2006, dated 2012).

For `Cc1cc(N2CCN(Cc3ccc(F)cc3)C2=O)sc1C(=O)NCc1cccs1` [Example 55.5, 5-(3-(4-fluorobenzyl)-2-oxoimidazolidin-1-yl)-3-methyl-N-(thiophen-2-ylmethyl)thiophene-2-carboxamide], the melting point (commonly the temperature of the solid-liquid transition) fell in the range of 128 to 131 °C.
Then `Cc1cnc(CNC(=O)c2sc(N3CCN(CC4CC4)C3=O)nc2C)cn1` [Example 9.34, 2-(3-(cyclopropylmethyl)-2-oxoimidazolidin-1-yl)-4-methyl-N-((5-methylpyrazin-2-yl)methyl)thiazole-5-carboxamide], with 161 to 163 °C; and `Cc1cc(-n2cnn(Cc3ccc(F)cc3)c2=O)sc1C(=O)NCc1cnn(C)c1` [Example 31.7, 5-(1-(4-fluorobenzyl)-5-oxo-1H-1,2,4-triazol-4(5H)-yl)-3-methyl-N-((1-methyl-1H-pyrazol-4-yl)methyl)thiophene-2-carboxamide], with 168 to 170 °C; and `Cc1cc(N2CCN(CCc3ccccc3)C2=O)sc1C(=O)NCc1cccnc1` [Example 15.4, 3-methyl-5-(2-oxo-3-phenethylimidazolidin-1-yl)-N-(pyridin-3-ylmethyl)thiophene-2-carboxamide], with 95 to 97 °C.
On to `Cc1nc(N2CCN(Cc3ccc(OC(F)F)cc3)C2=O)sc1C(=O)NCc1cccnc1` [Example 9.24, 2-(3-(4-(difluoromethoxy)benzyl)-2-oxoimidazolidin-1-yl)-4-methyl-N-(pyridin-3-ylmethyl)thiazole-5-carboxamide], for which the melting point is 166 to 167 °C.
Consider `Cc1nc(N2CCN(Cc3ccccc3)S2(=O)=O)sc1C(=O)NCc1ccccc1` [Example 27.1, N-benzyl-2-(5-benzyl-1,1-dioxido-1,2,5-thiadiazolidin-2-yl)-4-methyl-1,3-thiazole-5-carboxamide], for which the melting point was in the range of 135 to 137 °C.
`Cc1cc(-c2sc(N3CCN(Cc4ccc(F)cc4)C3=O)nc2C)n[nH]1` [Example 40.1, 1-(4-fluorobenzyl)-3-(4-methyl-5-(5-methyl-1H-pyrazol-3-yl)thiazol-2-yl)imidazolidin-2-one] came in with a melting point of 218 to 221 °C.
For `Cc1nc(N2CCN(Cc3ccc(F)cc3)C2=O)sc1C(=O)NCc1ccncn1` [Example 32.14, 2-(3-(4-fluorobenzyl)-2-oxoimidazolidin-1-yl)-4-methyl-N-(pyrimidin-4-ylmethyl)thiazole-5-carboxamide], the melting point fell in the range of 175 to 176 °C.
For `Cc1nc(N2CCN(CC3CCCCC3)C2=O)sc1C(=O)NCc1cccnc1` [Example 9.35, 2-(3-(cyclohexylmethyl)-2-oxoimidazolidin-1-yl)-4-methyl-N-(pyridin-3-ylmethyl)thiazole-5-carboxamide] the value was 134 to 136 °C; for `Cc1nc(N2CCN(Cc3ccc4nonc4c3)C2=O)sc1C(=O)NCc1cccnc1` [Example 32.6, 2-(3-(benzo[c][1,2,5]oxadiazol-5-ylmethyl)-2-oxoimidazolidin-1-yl)-4-methyl-N-(pyridin-3-ylmethyl)thiazole-5-carboxamide], 110 to 112 °C; for `Cc1nc(N2CCN(CC3CC3)C2=O)sc1C(=O)NCc1ccc(F)cc1` [Example 9.15, 2-(3-(cyclopropylmethyl)-2-oxoimidazolidin-1-yl)-N-(4-fluorobenzyl)-4-methylthiazole-5-carboxamide], 146 to 147 °C.
For `Cc1nc(N2CCN(Cc3ccc(F)cc3)C2=O)sc1C(=O)NCc1ccncc1` [Example 32.23, 2-(3-(4-fluorobenzyl)-2-oxoimidazolidin-1-yl)-4-methyl-N-(pyridin-4-ylmethyl)thiazole-5-carboxamide], the melting point fell in the range of 146 to 149 °C.
Compound `Cc1cnc(CNC(=O)c2sc(-n3cnn(Cc4ccc(F)cc4)c3=O)nc2C)cn1` [Example 21.15, 2-(1-(4-fluorobenzyl)-5-oxo-1H-1,2,4-triazol-4(5H)-yl)-4-methyl-N-((5-methylpyrazin-2-yl)methyl)thiazole-5-carboxamide] came in with a melting point of 188 to 189 °C.
Consider `Cc1csc(N2CCN(Cc3ccc(C(=O)Nc4ccc(F)cc4)cc3)C2=O)n1` [Example 8.7, N-(4-fluorophenyl)-4-((3-(4-methylthiazol-2-yl)-2-oxoimidazolidin-1-yl)methyl)benzamide], for which the melting point was in the range of 206 to 207 °C.
In turn, `Cc1ncc(CNC(=O)c2sc(-n3cnn(Cc4ccc(F)cc4)c3=O)nc2C)s1` [Example 21.11, 2-(1-(4-fluorobenzyl)-5-oxo-1H-1,2,4-triazol-4(5H)-yl)-4-methyl-N-((2-methylthiazol-5-yl)methyl)thiazole-5-carboxamide] returned a melting point of 176 to 177 °C.
With `COC(=O)c1ccc(CN2CCN(c3nc(C)c(C(C)=O)s3)C2=O)cc1` [Example 5.11, methyl 4-((3-(5-acetyl-4-methylthiazol-2-yl)-2-oxoimidazolidin-1-yl)methyl)benzoate], the melting point fell in the range of 174 to 175 °C.
`Cc1nc(N2C(=O)N(Cc3ccc(C(F)(F)F)cc3)CC2O)sc1C(=O)NCc1cccnc1` (stereo not shown) [Example 16.3, 2-(5-hydroxy-2-oxo-3-(4-(trifluoromethyl)benzyl)imidazolidin-1-yl)-4-methyl-N-(pyridin-3-ylmethyl)thiazole-5-carboxamide] gave a melting point of 171 to 172 °C.
In turn, `Cc1nc(N2CCN(Cc3ccccc3)C2=O)sc1C(=O)NCc1ccc(F)cc1F` [Example 9.4, 2-(3-benzyl-2-oxoimidazolidin-1-yl)-N-(2,4-difluorobenzyl)-4-methylthiazole-5-carboxamide] gave a melting point of 157 to 158 °C.
`Cc1nc(CNC(=O)c2sc(-n3cnn(Cc4ccc(F)cc4)c3=O)cc2C)cs1` [Example 31.8, 5-(1-(4-fluorobenzyl)-5-oxo-1H-1,2,4-triazol-4(5H)-yl)-3-methyl-N-((2-methylthiazol-4-yl)methyl)thiophene-2-carboxamide] registered a melting point of 148 to 150 °C.
Turning to `Cc1cc(N2CCN(Cc3ccccc3)C2=O)sc1C(=O)NCc1cccnc1` [Example 15.1, 5-(3-benzyl-2-oxoimidazolidin-1-yl)-3-methyl-N-(pyridin-3-ylmethyl)thiophene-2-carboxamide], the melting point was 130 to 131 °C.
The compound `Cc1nc(N2CCN(Cc3ccc4nsnc4c3)C2=O)sc1C(=O)NCc1cccnc1` [Example 32.7, 2-(3-(benzo[c][1,2,5]thiadiazol-5-ylmethyl)-2-oxoimidazolidin-1-yl)-4-methyl-N-(pyridin-3-ylmethyl)thiazole-5-carboxamide] had a melting point of 105 to 107 °C.
`Cc1nc(-n2ccn(Cc3ccc(F)cc3)c2=O)sc1C(=O)NCc1cccnc1` [Example 17.2, 2-(3-(4-fluorobenzyl)-2-oxo-2,3-dihydro-1H-imidazol-1-yl)-4-methyl-N-(pyridin-3-ylmethyl)thiazole-5-carboxamide] displayed a melting point of 158 to 159 °C.
For `Cc1nc(N2CCN(Cc3ccc(OC(F)(F)F)cc3)C2=O)sc1C(=O)NCc1ccccc1` [Example 9.23, N-benzyl-4-methyl-2-(2-oxo-3-(4-(trifluoromethoxy)benzyl)imidazolidin-1-yl)thiazole-5-carboxamide] the value was 197 to 198 °C; for `Cc1cc(CN2CCN(c3nc(C)c(C(=O)NCc4cccnc4)s3)C2=O)no1` [Example 32.3, 4-methyl-2-(3-((5-methylisoxazol-3-yl)methyl)-2-oxoimidazolidin-1-yl)-N-(pyridin-3-ylmethyl)thiazole-5-carboxamide], 185 to 188 °C.
Regarding `Cc1nc(N2CCN(Cc3ccc(F)cc3)C2=O)sc1C(=O)NCc1ncco1` [Example 32.11, 2-(3-(4-fluorobenzyl)-2-oxoimidazolidin-1-yl)-4-methyl-N-(oxazol-2-ylmethyl)thiazole-5-carboxamide], the melting point was 187 to 189 °C.
`Cc1nc(-n2cnn(Cc3ccc(F)cc3)c2=O)sc1C(=O)NCc1nccs1` [Example 21.12, 2-(1-(4-fluorobenzyl)-5-oxo-1H-1,2,4-triazol-4(5H)-yl)-4-methyl-N-(thiazol-2-ylmethyl)thiazole-5-carboxamide] displayed a melting point of 189 to 190 °C.
`Cc1nc(N2CCN(Cc3cccc(C(=O)O)c3)C2=O)sc1C(=O)NCc1ccccc1` [Example 25, 3-((3-(5-(benzylcarbamoyl)-4-methylthiazol-2-yl)-2-oxoimidazolidin-1-yl)methyl)benzoic acid] registered a melting point of 120 to 123 °C.
`Cc1nc(-n2ccn(Cc3ccc(F)cc3)c2=O)sc1C(=O)NCc1ccccc1` [Example 17, N-benzyl-2-(3-(4-fluorobenzyl)-2-oxo-2,3-dihydro-1H-imidazol-1-yl)-4-methylthiazole-5-carboxamide] showed a melting point of 167 to 168 °C.
The compound `Cc1nc(N2CCN(Cc3ccccc3)/C2=N\C#N)sc1C(=O)NCc1ccccc1` [Example 27, N-benzyl-2-(3-benzyl-2-(cyanoimino)imidazolidin-1-yl)-4-methylthiazole-5-carboxamide] registered a melting point of 226 to 228 °C.
The compound `O=C(O)c1cnc(N2CCN(CC3CC3)C2=O)s1` [Example 25.1, 2-(3-(cyclopropylmethyl)-2-oxoimidazolidin-1-yl)thiazole-5-carboxylic acid] returned a melting point of 250 to 252 °C.
In turn, `Cc1nc(-n2cnn(CC3CC3)c2=O)sc1C(=O)NCc1cccnc1` [Example 21.4, 2-(1-(cyclopropylmethyl)-5-oxo-1H-1,2,4-triazol-4(5H)-yl)-4-methyl-N-(pyridin-3-ylmethyl)thiazole-5-carboxamide] registered a melting point of 116 to 117 °C.
For `Cc1cc(N2CCN(Cc3ccc(F)cc3)C2=O)sc1C(=O)NCc1cccnc1` [Example 15.2, 5-(3-(4-fluorobenzyl)-2-oxoimidazolidin-1-yl)-3-methyl-N-(pyridin-3-ylmethyl)thiophene-2-carboxamide] the value was 119 to 120 °C; for `COC(=O)c1ccc(CN2CCN(c3nc(C)cs3)C2=O)cc1` [Example 5.13, methyl 4-((3-(4-methylthiazol-2-yl)-2-oxoimidazolidin-1-yl)methyl)benzoate], 157 to 158 °C.
For the compound `Cc1nc(N2CCN(Cc3ccc(C(F)(F)F)cc3)C2=O)sc1C(=O)NCc1ccccc1` [Example 9.13, N-benzyl-4-methyl-2-(2-oxo-3-(4-(trifluoromethyl)benzyl)imidazolidin-1-yl)thiazole-5-carboxamide], the melting point fell in the range of 127 to 128 °C.
